Earlier results, collected in patent US12668568B2, “Adamantanyl-substituted benzamide compounds and their use as P2X7 receptor antagonists” (The University of Sydney, priority 2018, dated 2026).

Details: literature log D7.4 values; cited from earlier work

Point of comparison: `CC(C)=O` [acetone], “log D7.4 of calibration standards” value −0.24. Against it:
- Nc1ccccc1 [aniline] — higher, 0.90
- c1ccc(N(c2ccccc2)c2ccccc2)cc1 [triphenylamine] — higher, 5.74
